Activity calls are given as the source filed them. The rule behind the calls is not given here.

Assay [1] deals with Voltage-dependent L-type calcium channel subunit alpha-1C (Homo sapiens) (UniProt Q13936). In words: Antagonist activity against L-type calcium channel subunit alpha-1C assessed as inactivation of channel current at 0.1 uM by cell based patch clamp assay.
Assay [2] deals with Voltage-dependent T-type calcium channel subunit alpha-1H (Homo sapiens) (UniProt O95180). In words: Antagonist activity against T-type calcium channel subunit alpha-1H assessed as inactivation of channel current at 1 uM by cell based patch clamp assay. In kind it is functional.
The target is the same in assay [3]. In words: Antagonist activity against T-type calcium channel subunit alpha-1H assessed as inactivation of channel current at 0.1 uM by cell based patch clamp assay. Format: functional.
Assay [4] has the same target. In words: Antagonist activity against T-type calcium channel subunit alpha-1H assessed as inactivation of channel current at 0.3 uM by cell based patch clamp assay. In kind it is functional.
For assay [5], the target named is Voltage-dependent L-type calcium channel subunit alpha-1C (Homo sapiens) (UniProt Q13936). The assay is described as follows: Antagonist activity against L-type calcium channel subunit alpha-1C assessed as inactivation of channel current at 0.3 uM by cell based patch clamp assay.
The target is the same in assay [6]. In words: Antagonist activity against L-type calcium channel subunit alpha-1C assessed as inactivation of channel current at 10 uM by cell based patch clamp assay.
Assay [7] in a line: Selectivity for T-type calcium channel subunit alpha-1H over L-type calcium channel subunit alpha-1C.
Assay [8] has as its target Voltage-dependent T-type calcium channel subunit alpha-1H (Homo sapiens) (UniProt O95180). In words: Antagonist activity against T-type calcium channel subunit alpha-1H assessed as inactivation of channel current at 0.03 uM by cell based patch clamp assay. In kind it is functional.
For assay [9] the target is unchanged. The assay is described as follows: Antagonist activity against T-type calcium channel subunit alpha-1H assessed as inactivation of channel current at 3 uM by cell based patch clamp assay. Format: functional.
Assay [10] has as its target Voltage-dependent L-type calcium channel subunit alpha-1C (Homo sapiens) (UniProt Q13936). In words: Antagonist activity against L-type calcium channel subunit alpha-1C assessed as inactivation of channel current at 3 uM by cell based patch clamp assay.

Voltage-dependent T-type calcium channel subunit alpha-1H (Homo sapiens), sequence (O95180 whole entry): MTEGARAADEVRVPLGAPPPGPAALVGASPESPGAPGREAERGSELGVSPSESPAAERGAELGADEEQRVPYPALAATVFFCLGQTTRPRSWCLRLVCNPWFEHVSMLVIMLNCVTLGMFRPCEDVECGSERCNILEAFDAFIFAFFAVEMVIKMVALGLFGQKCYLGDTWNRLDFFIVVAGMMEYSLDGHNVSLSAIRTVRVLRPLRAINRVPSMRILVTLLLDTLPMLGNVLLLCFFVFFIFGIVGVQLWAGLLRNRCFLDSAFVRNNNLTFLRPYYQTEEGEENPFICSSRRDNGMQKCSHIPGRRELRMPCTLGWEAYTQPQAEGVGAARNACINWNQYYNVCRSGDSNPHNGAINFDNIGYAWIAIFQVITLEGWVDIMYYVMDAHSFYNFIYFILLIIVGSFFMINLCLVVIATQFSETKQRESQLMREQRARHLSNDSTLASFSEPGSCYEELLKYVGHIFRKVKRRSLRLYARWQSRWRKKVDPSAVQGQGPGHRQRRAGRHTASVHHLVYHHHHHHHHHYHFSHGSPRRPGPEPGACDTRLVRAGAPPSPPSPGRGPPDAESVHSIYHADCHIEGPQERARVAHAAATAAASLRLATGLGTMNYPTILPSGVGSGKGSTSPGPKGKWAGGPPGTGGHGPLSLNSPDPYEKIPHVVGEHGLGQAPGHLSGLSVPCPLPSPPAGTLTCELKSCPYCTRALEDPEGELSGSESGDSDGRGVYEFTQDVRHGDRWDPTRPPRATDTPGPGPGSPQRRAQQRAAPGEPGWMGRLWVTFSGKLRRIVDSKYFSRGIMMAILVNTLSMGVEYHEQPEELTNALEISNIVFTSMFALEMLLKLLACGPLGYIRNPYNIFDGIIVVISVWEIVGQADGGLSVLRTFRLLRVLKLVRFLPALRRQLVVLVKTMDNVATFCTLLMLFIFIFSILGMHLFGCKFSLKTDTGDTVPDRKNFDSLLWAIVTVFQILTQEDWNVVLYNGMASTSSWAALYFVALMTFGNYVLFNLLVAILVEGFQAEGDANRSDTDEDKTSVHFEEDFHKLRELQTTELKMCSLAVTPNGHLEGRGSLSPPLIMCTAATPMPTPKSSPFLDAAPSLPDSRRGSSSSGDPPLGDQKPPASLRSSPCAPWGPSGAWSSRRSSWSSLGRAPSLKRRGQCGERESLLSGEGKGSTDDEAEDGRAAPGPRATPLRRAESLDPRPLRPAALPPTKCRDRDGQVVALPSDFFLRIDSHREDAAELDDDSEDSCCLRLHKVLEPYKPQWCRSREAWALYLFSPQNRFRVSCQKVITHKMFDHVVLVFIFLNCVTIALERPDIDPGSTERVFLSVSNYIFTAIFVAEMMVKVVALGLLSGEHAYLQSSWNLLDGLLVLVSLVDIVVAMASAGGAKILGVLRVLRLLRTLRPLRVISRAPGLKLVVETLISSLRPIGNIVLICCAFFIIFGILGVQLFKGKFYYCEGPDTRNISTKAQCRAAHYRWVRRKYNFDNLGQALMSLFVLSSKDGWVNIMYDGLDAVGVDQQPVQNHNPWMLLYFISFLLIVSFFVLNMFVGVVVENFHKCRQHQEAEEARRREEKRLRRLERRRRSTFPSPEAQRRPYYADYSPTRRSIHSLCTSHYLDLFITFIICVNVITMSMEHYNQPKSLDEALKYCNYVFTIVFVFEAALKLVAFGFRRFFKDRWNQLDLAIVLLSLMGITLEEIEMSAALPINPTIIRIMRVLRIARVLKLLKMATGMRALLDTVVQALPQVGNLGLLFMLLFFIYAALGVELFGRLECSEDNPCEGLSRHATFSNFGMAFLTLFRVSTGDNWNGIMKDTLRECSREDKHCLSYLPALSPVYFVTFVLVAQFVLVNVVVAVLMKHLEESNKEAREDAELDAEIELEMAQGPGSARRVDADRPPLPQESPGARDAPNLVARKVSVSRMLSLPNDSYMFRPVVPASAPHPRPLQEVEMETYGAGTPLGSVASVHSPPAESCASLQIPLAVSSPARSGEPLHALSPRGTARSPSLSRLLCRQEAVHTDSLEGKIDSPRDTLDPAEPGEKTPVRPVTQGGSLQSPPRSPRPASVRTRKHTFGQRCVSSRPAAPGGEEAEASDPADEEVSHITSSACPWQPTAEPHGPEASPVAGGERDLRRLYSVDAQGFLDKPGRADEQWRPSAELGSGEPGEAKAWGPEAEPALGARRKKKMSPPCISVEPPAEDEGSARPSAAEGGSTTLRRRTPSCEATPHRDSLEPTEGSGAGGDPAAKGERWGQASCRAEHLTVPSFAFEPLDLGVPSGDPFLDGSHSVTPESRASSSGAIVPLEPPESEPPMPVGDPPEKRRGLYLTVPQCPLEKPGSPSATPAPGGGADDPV
Voltage-dependent L-type calcium channel subunit alpha-1C (Homo sapiens), sequence (Q13936 whole entry, looked up): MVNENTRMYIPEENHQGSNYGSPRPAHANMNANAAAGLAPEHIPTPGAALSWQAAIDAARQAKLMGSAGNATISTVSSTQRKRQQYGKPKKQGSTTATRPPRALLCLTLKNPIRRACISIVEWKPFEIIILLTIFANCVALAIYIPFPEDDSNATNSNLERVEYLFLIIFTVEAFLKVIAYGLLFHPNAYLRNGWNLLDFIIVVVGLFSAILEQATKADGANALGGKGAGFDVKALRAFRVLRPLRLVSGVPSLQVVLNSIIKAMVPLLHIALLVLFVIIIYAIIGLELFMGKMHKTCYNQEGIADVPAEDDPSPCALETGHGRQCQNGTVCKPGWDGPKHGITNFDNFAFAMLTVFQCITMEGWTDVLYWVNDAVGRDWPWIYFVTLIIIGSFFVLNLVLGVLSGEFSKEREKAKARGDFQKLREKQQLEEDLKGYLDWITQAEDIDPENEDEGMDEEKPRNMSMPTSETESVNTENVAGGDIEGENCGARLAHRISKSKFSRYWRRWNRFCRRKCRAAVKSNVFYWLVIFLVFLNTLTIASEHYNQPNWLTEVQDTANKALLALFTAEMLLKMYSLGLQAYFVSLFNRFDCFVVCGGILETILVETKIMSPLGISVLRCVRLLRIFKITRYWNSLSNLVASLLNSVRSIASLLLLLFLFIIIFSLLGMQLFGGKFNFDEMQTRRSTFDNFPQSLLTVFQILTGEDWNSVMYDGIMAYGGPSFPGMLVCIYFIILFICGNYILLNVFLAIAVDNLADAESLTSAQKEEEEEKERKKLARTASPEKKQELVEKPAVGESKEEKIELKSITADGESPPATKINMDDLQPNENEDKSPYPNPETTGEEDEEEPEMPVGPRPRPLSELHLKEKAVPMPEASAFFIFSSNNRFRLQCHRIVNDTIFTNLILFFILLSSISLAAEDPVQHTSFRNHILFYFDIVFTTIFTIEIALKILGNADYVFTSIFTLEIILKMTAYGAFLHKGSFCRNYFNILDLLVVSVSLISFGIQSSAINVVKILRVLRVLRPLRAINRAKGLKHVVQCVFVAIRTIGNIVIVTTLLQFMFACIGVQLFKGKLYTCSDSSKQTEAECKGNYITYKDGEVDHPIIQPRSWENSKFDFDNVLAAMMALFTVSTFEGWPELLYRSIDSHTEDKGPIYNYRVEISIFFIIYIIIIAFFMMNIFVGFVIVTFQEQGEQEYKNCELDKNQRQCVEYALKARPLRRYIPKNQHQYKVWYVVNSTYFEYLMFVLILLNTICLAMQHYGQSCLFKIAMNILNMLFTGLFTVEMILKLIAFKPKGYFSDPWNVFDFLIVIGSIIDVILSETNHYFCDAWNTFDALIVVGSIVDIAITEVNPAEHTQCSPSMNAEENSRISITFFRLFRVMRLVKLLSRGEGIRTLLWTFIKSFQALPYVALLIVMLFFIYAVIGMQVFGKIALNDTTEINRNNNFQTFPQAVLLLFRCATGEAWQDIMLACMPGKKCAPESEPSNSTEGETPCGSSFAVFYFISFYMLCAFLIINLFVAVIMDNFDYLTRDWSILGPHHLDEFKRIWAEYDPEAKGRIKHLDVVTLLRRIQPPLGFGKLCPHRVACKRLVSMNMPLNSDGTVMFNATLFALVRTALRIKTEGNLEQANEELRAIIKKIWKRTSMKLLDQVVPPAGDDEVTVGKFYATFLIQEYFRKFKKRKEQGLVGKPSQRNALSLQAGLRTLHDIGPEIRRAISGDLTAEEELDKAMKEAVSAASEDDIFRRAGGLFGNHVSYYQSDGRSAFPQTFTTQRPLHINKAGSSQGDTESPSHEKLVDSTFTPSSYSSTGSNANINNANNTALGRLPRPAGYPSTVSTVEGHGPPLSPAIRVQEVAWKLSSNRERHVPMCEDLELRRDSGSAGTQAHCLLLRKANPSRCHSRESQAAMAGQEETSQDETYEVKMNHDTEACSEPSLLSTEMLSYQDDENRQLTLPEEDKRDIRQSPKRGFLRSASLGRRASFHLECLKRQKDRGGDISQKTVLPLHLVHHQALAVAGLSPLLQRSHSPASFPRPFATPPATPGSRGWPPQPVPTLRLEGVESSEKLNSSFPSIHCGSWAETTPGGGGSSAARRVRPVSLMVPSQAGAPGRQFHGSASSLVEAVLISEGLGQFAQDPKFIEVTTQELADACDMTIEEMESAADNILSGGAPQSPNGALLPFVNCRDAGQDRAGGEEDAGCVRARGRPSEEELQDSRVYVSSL

For `O=C1CC2(CCN(C(c3ccc(F)cc3)c3ccc(F)cc3)CC2)CN1Cc1ccc(Cl)cc1`, the inhibition in [1] turned out to be 42%; in assay [2], 68%.

For `COCCN1CCC2(CCN(C(c3ccc(F)cc3)c3ccc(F)cc3)CC2)C1=O`, the inhibition in assay [2] worked out at 28%.

`O=C1N(Cc2ccc(Cl)cc2)CCC12CCN(CC(c1ccc(F)cc1)c1ccc(F)cc1)CC2`: in assay [3], the inhibition came out at 59%.

In the case of `O=C1N(Cc2ccc(Cl)cc2)CCC12CCN(Cc1cccc(Oc3ccccc3)c1)CC2`, the inhibition in [4] stood at 56%.

Regarding `CC(C)(C)CCN1CCC2(CCN(C(c3ccc(F)cc3)c3ccc(F)cc3)CC2)C1=O`, the inhibition in [5] was 60%; in [4], 44%.

In the case of `COCCCN1CCC2(CCN(C(c3ccc(F)cc3)c3ccc(F)cc3)CC2)C1=O`, the inhibition in assay [6] is 58%; in assay [2], 44%.

On to `COc1cccc(CN2CCC3(CCN(C(c4ccc(F)cc4)c4ccc(F)cc4)CC3)C2=O)c1`, for which, in assay [7], the Ratio IC50 was found to be 8. For the same compound, the inhibition was 67% in assay [5] and 52% in [8].

In the case of `O=C1N(Cc2ccc(Cl)cc2)CCC12CCN(C(c1ccc(F)cc1)c1ccc(F)cc1)CC2`, the results for the inhibition in [1] and in assay [8] were 31% and 58%, respectively. Besides, in [7], the Ratio IC50 amounted to 10.

For `CCOc1ccccc1CN1CCC2(CC1)CCN(Cc1ccc(Cl)cc1)C2=O`, in assay [9], the inhibition came to 67%.

Take `O=C1N(Cc2ccc(Cl)cc2)CCC12CCNCC2`: the inhibition in assay [9] is < 20%.

Take `CC(C)N1CCC2(CCN(C(c3ccc(F)cc3)c3ccc(F)cc3)CC2)C1=O`: the inhibition in assay [9] stood at 57%; in [10], 52%.

Turning to `O=C1N(Cc2ccc(Cl)cc2)CCC12CCN(Cc1ccc(F)cc1)CC2`, the figures for the inhibition in assay [9] and in [10] were 65% and 59%, respectively.

Regarding `Fc1ccc(C(c2ccc(F)cc2)N2CCC3(CCN(Cc4ccc(Cl)cc4)C3)CC2)cc1`, the inhibition in [2] was 66%.

Turning to `O=C1N(Cc2ccc(Cl)cc2)CCC12CCN(S(=O)(=O)c1ccc(F)cc1)CC2`, the inhibition is 45% in assay [9] and 54% in [10].

As to `O=C1N(CCCN2CCOCC2)CCC12CCN(C(c1ccc(F)cc1)c1ccc(F)cc1)CC2`, in assay [2], the inhibition turned out to be 35%.

With `O=C(c1ccc(Cl)cc1)N1CCC2(CCN(C(c3ccc(F)cc3)c3ccc(F)cc3)CC2)C1`, the inhibition worked out at 44% in assay [1] and 59% in assay [4].

For `CC(C)OCCCN1CCC2(CCN(C(c3ccc(F)cc3)c3ccc(F)cc3)CC2)C1=O`, the values for the inhibition in assay [10] and in assay [2] were 56% and 76%, respectively.

In the case of `CC(C)C(C(C)C)N1CCC2(CCN(Cc3ccc(Cl)cc3)C2=O)CC1`, in [4], the inhibition was found to be 40%.

On to `O=C1N(CCc2ccc(Cl)cc2)CCC12CCN(C(c1ccc(F)cc1)c1ccc(F)cc1)CC2`, for which the inhibition in assay [8] was determined as 30%.

Consider `O=C1N(Cc2cccc(Cl)c2)CCC12CCN(C(c1ccc(F)cc1)c1ccc(F)cc1)CC2`, for which the inhibition is < 20% in [8] and 91% in assay [4].

In the case of `O=C(c1ccc(F)cc1)N1CCC2(CC1)CCN(Cc1ccc(Cl)cc1)C2=O`, the inhibition in assay [2] was < 20%.

Take `O=C1NCCC12CCN(C(c1ccc(F)cc1)c1ccc(F)cc1)CC2`: in [9], the inhibition was < 20%. Also, in assay [2], the inhibition entry was “inactive”.

For the origin of these results see ChEMBL document CHEMBL1268989, “Design, syntheses, and SAR of 2,8-diazaspiro[4.5]decanones as T-type calcium channel antagonists” (Bioorg Med Chem Lett, 2010).
